Data: US20050249674A1, “Aerosol composition” (University College Cardiff Consultants Limited, priority 1998, published 2005)

Test: visual assessment of suspension: ease of dispersion on hand held shaking, extent of aggregation, suspension quality
Type: physicochemical
Conditions: in HFA-134a or HFA-227
Procedure: Each suspension was assessed visually for its ease of dispersion on hand held shaking, its extent of aggregation and the quality of the suspension.
Ease of dispersion was scored on a scale of good (g), medium (m) and poor (p).
The extent of aggregation was scored on a scale of low, medium and high. Additionally the type of aggregation, if present, was recorded.
The quality of the suspension was scored on a scale of poor (p), poor-fair (p/f), fair (f), fair-good (f/g) and good (g).
The suspension properties measured by visual inspection were ease of dispersion, extent of aggregation and suspension quality and were scored as for Examples A to Q.
The resulting suspensions were assessed visually for ease of dispersion, suspension quality and extent of aggregation and scored as above, as set out under Examples A to R. The results are given in Table IV below.
The suspensions so formed were assessed visually for ease of dispersion and suspension quality and each assessment was scored on a scale of poor (p), poor-fair (p/f), fair (f), fair-good (f/g), good (g).
The extent of aggregation of each suspension was also assessed visually and in each example was rated as low.

Row | Compound | tendency to cream or sediment in the propellant
1 | OC[C@H]1OC(O)[C@H](O)[C@@H](O)[C@@H]1O (stereo partly drawn) [Glucose, d-glucose anhydrous] | tendency to sediment
2 | CC(C)C[C@H](N)C(=O)O [Leucine, L-leucine] | tendency to cream
